Drawing on PubChem BioAssay AID330 (DTP/NCI, 2004), this text covers T/C for 22 compounds.

Several values for one entry are separate records, joined by “and”; a condition that tells them apart may be missing. Equal values may be shown once. Inconclusive results and toxic doses are left out.

The assay concerns P388 leukemia ip, CD2F1 mice, survival T/C. Nature of the assay: NCI In Vivo Anticancer Drug Screen. Data for tumor model P388 Leukemia (intraperitoneal) in CD2F1 (CDF1) mice. Conditions: endpoint: median survival time, higher = longer survival. The essentials:
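Mice carrying the transplanted tumor received test compound or vehicle. Survival was recorded in each group, and the value is the treated-group measurement divided by that of the vehicle-treated control group.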

Setting [1] is: dose: 50.0 mg/kg/injection, schedule: Q01DX009 (ip), vehicle: Klucel (hydroxypropylcellulose) (HPC).
[2] abbreviates: dose: 100.0 mg/kg/injection, schedule: Q01DX009 (ip), vehicle: Klucel (hydroxypropylcellulose) (HPC).
Setting [3] is: dose: 50.0 mg/kg/injection, schedule: Q01DX009 (ip), vehicle: saline.
[4] abbreviates: dose: 100.0 mg/kg/injection, schedule: Q01DX009 (ip), vehicle: saline.
Where [5] appears, read: dose: 60.0 mg/kg/injection, schedule: Q01DX005 (ip), vehicle: saline with Tween-80.
The mark [6] stands for this setting: dose: 120.0 mg/kg/injection, schedule: Q01DX005 (ip), vehicle: saline with Tween-80.
Where [7] appears, read: dose: 50.0 mg/kg/injection, schedule: Q01DX009 (ip), vehicle: saline with Tween-80.
The mark [8] stands for this setting: dose: 100.0 mg/kg/injection, schedule: Q01DX009 (ip), vehicle: saline with Tween-80.
Setting [9] is: dose: 50.0 mg/kg/injection, schedule: Q01DX005 (ip), vehicle: saline with Tween-80.
The mark [10] stands for this setting: dose: 100.0 mg/kg/injection, schedule: Q01DX005 (ip), vehicle: saline with Tween-80.
Setting [11] is: dose: 200.0 mg/kg/injection, schedule: Q01DX005 (ip), vehicle: saline with Tween-80.

As to `CC(=O)OC1CCC2C(=CCC3C2(C)C(=O)CC2(C)C(C4(C)OC(C(C)C)=CC4=O)C(O)CC32C)C1(C)C` (configuration not stated), the T/C by setting is: (dose: 9.63 mg/kg/injection, schedule: Q01DX005 (ip), vehicle: saline + Tween-80 + alcohol) 111 % of control; (dose: 19.25 mg/kg/injection, schedule: Q01DX005 (ip), vehicle: saline + Tween-80 + alcohol) 111 % of control; (dose: 38.5 mg/kg/injection, schedule: Q01DX005 (ip), vehicle: saline + Tween-80 + alcohol) 106 % of control; (dose: 77.0 mg/kg/injection, schedule: Q01DX005 (ip), vehicle: saline + Tween-80 + alcohol) 97 % of control.
Take `CCn1c(=O)c2[nH]c(Cl)nc2n(CC(C)Cl)c1=O` (configuration not stated): the T/C is 94 % of control (dose: 12.5 mg/kg/injection, schedule: Q01DX009 (ip), vehicle: Klucel (hydroxypropylcellulose) (HPC)); 101 % of control (dose: 25.0 mg/kg/injection, schedule: Q01DX009 (ip), vehicle: Klucel (hydroxypropylcellulose) (HPC)); 100 % of control and 103 % of control under setting [1]; 104 % of control under setting [2].
In the case of `N[C@@H](Cc1c[nH]c2ccccc12)C(=O)Nc1nncs1`, the T/C (dose: 18.75 mg/kg/injection, schedule: Q01DX005 (ip), vehicle: saline) was 100 % of control and 102 % of control; the T/C (dose: 37.5 mg/kg/injection, schedule: Q01DX005 (ip), vehicle: saline) is 98 % of control and 101 % of control; the T/C (dose: 50.0 mg/kg/injection, schedule: Q04DX002 (ip), vehicle: suspension in saline) is 100 % of control; the T/C (dose: 75.0 mg/kg/injection, schedule: Q01DX005 (ip), vehicle: saline) is 100 % of control and 101 % of control; the T/C (dose: 100.0 mg/kg/injection, schedule: Q04DX002 (ip), vehicle: suspension in saline) is 100 % of control; the T/C (dose: 150.0 mg/kg/injection, schedule: Q01DX005 (ip), vehicle: saline) was 99 % of control and 100 % of control. Besides, the T/C is 99 % of control (dose: 200.0 mg/kg/injection, schedule: Q04DX002 (ip), vehicle: suspension in saline); 106 % of control and 109 % of control (dose: 300.0 mg/kg/injection, schedule: Q01DX005 (ip), vehicle: saline); 171 % of control (dose: 600.0 mg/kg/injection, schedule: Q04DX002 (ip), vehicle: saline); 151 % of control (dose: 800.0 mg/kg/injection, schedule: Q04DX002 (ip), vehicle: suspension in saline).
In the case of `COc1nnnc2c1sc1ccccc12`, the T/C is, setting by setting: (dose: 100.0 mg/kg/injection, schedule: Q01DX001 (ip), vehicle: saline with Tween-80) 101 % of control; (dose: 200.0 mg/kg/injection, schedule: Q01DX001 (ip), vehicle: saline with Tween-80) 104 % of control; (dose: 400.0 mg/kg/injection, schedule: Q01DX001 (ip), vehicle: saline with Tween-80) 102 % of control.
Consider `NCCCCC(C(=O)NC(Cc1ccc(O)cc1)C(=O)NN)N(C(=O)OCc1ccccc1)C(=O)OCc1ccccc1` (configuration not stated), for which the T/C (dose: 50.0 mg/kg/injection, schedule: Q01DX005 (ip), vehicle: saline + Tween-80 + alcohol) is 107 % of control; the T/C (dose: 100.0 mg/kg/injection, schedule: Q01DX005 (ip), vehicle: saline + Tween-80 + alcohol) is 104 % of control; the T/C (dose: 200.0 mg/kg/injection, schedule: Q01DX005 (ip), vehicle: saline + Tween-80 + alcohol) was 94 % of control.
For the compound `O=C(O)CC1(C(=O)O)CCC(OCc2ccccc2)CC1` (configuration not stated), the T/C was 102 % of control under setting [3] and 92 % of control under setting [4].
For the compound `COC(=O)C1(CC(=O)c2ccc3ccccc3c2)NC(=S)NC(=O)C1C#N` (configuration not stated), the T/C by setting is: under setting [5], 95 % of control; under setting [6], 95 % of control; (dose: 240.0 mg/kg/injection, schedule: Q01DX005 (ip), vehicle: saline with Tween-80) 91 % of control.
With `Cc1nc(-c2ccccc2-n2cccc2)no1`, the T/C under setting [7] is 104 % of control and the T/C under setting [8] is 102 % of control.
Turning to `O=C1NC(Cc2ccccc2)C(=O)N2CCCC12` (configuration not stated), the T/C by setting is: under setting [3], 100 % of control; under setting [4], 96 % of control; (dose: 200.0 mg/kg/injection, schedule: Q01DX009 (ip), vehicle: saline) 101 % of control.
Turning to `Clc1cc(Cl)c(CBr)cc1CBr`, the T/C reads like this: (dose: 3.0 mg/kg/injection, schedule: Q04DX003 (ip), vehicle: saline with Tween-80) 104 % of control; (dose: 6.0 mg/kg/injection, schedule: Q04DX003 (ip), vehicle: saline with Tween-80) 104 % of control; (dose: 12.0 mg/kg/injection, schedule: Q04DX003 (ip), vehicle: saline with Tween-80) 100 % of control.
Regarding `CCC1C(=O)C=C(c2ccccc2)CC1c1ccccc1` (configuration not stated), the T/C is 111 % of control under setting [9], 102 % of control under setting [10] and 93 % of control under setting [11].
With `O=P1(Oc2ccc(N=C=S)cc2)OCCCO1`, the T/C by setting is: (dose: 60.0 mg/kg/injection, schedule: Q01DX005 (ip), vehicle: Klucel (hydroxypropylcellulose) (HPC)) 102 % of control; (dose: 120.0 mg/kg/injection, schedule: Q01DX005 (ip), vehicle: Klucel (hydroxypropylcellulose) (HPC)) 103 % of control; (dose: 240.0 mg/kg/injection, schedule: Q01DX005 (ip), vehicle: Klucel (hydroxypropylcellulose) (HPC)) 104 % of control.
Turning to `Cc1ccc([C@H]2N[C@@H]2c2ccccn2)cc1`, the T/C reads like this: under setting [5], 98 % of control; under setting [6], 103 % of control.
For the compound `COC1(C)CNc2ccccc2C(=O)N1` (configuration not stated), the T/C by setting is: under setting [9], 96 % of control; under setting [10], 98 % of control; under setting [11], 94 % of control.
Turning to `CN(C)c1ccc(C(Cc2ccc3ccccc3n2)Cc2ccc3ccccc3n2)cc1`, the T/C was 99 % of control under setting [9], 88 % of control under setting [10] and 89 % of control under setting [11].
As to `Cc1cc(C)c2nc(N/N=C/c3cccnc3)sc2c1`, the T/C runs as follows: under setting [1], 95 % of control; under setting [2], 92 % of control; (dose: 200.0 mg/kg/injection, schedule: Q01DX009 (ip), vehicle: Klucel (hydroxypropylcellulose) (HPC)) 92 % of control.
As for `C=C=CCN(C)Cc1ccccc1`, the T/C was 106 % of control (dose: 25.0 mg/kg/injection, schedule: Q04DX002 (ip), vehicle: saline); 93 % of control (dose: 50.0 mg/kg/injection, schedule: Q04DX002 (ip), vehicle: saline); 100 % of control and 101 % of control (dose: 100.0 mg/kg/injection, schedule: Q04DX002 (ip), vehicle: saline).
`CN(C)CCNC(=O)c1nn(-c2ccccc2)c2c1CSc1ccccc1-2`: the T/C (dose: 100.0 mg/kg/injection, schedule: Q04DX002 (ip), vehicle: saline with Tween-80) was 100 % of control; the T/C (dose: 200.0 mg/kg/injection, schedule: Q04DX002 (ip), vehicle: saline with Tween-80) was 105 % of control; the T/C (dose: 400.0 mg/kg/injection, schedule: Q04DX002 (ip), vehicle: saline with Tween-80) was 103 % of control.
Take `CCOc1ccc(N=Nc2c(-c3ccccc3)nn(C(=S)S)c2-c2ccccc2)cc1`: the T/C was 88 % of control under setting [9], 92 % of control under setting [10] and 90 % of control under setting [11].
Consider `CCCCN(CCCC)c1cc(C(=O)CCCCCN)c2ccccc2n1`, for which the T/C is, setting by setting: (dose: 6.25 mg/kg/injection, schedule: Q01DX005 (ip), vehicle: saline) 97 % of control; (dose: 12.5 mg/kg/injection, schedule: Q01DX005 (ip), vehicle: saline) 90 % of control; (dose: 25.0 mg/kg/injection, schedule: Q01DX005 (ip), vehicle: saline) 90 % of control and 94 % of control.
As to `CS(=O)(=O)OCC1CCSC1=O` (configuration not stated), the T/C under setting [7] was 100 % of control; the T/C under setting [8] was 106 % of control; the T/C (dose: 200.0 mg/kg/injection, schedule: Q01DX009 (ip), vehicle: saline with Tween-80) was 108 % of control.
Take `CC(C)(C)C(=O)Nc1c(Cl)cc(Br)cc1Br`: the T/C was 105 % of control (dose: 50.0 mg/kg/injection, schedule: Q01DX009 (ip), vehicle: saline + alcohol); 101 % of control (dose: 100.0 mg/kg/injection, schedule: Q01DX009 (ip), vehicle: saline + alcohol); 100 % of control (dose: 200.0 mg/kg/injection, schedule: Q01DX009 (ip), vehicle: saline + alcohol).
